Laboratory results as given in PubChem BioAssay (NCI).
“And” between values parts separate entries of the source, which are not always exact repeats. Identical values can stand only once.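 Compound exposure: 48 hours, 5 concentrations, 96-well plates. GI50 marks 50% less growth. TGI marks complete inhibition of growth.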

Assays:
Test in all cases: NCI tumour cell line growth inhibition, 48 h; in the data active = GI50 below about 0.43 µM; inactive = the rest
786-0 renal = tested on: 786-0 renal
ACHN renal = tested on: ACHN renal
BT-549 breast = tested on: BT-549 breast
CCRF-CEM leukemia = tested on: CCRF-CEM leukemia
DMS 114 small cell lung = tested on: DMS 114 small cell lung
DMS 273 small cell lung = tested on: DMS 273 small cell lung
DU-145 prostate = tested on: DU-145 prostate
HCC-2998 colon = tested on: HCC-2998 colon
HS 578T breast = tested on: HS 578T breast
MCF7 breast = tested on: MCF7 breast
MDA-MB-231 breast = tested on: MDA-MB-231 breast
MDA-MB-435 = tested on: MDA-MB-435
NCI-H522 lung = tested on: NCI-H522 lung
OVCAR-8 ovarian = tested on: OVCAR-8 ovarian
PC-3 prostate = tested on: PC-3 prostate
SR leukemia = tested on: SR leukemia
T-47D breast = tested on: T-47D breast
TK-10 renal = tested on: TK-10 renal
A498 renal = tested on: A498 renal
A549 NSCLC = tested on: A549 NSCLC
CAKI-1 renal = tested on: CAKI-1 renal
COLO 205 colon = tested on: COLO 205 colon
EKVX NSCLC = tested on: EKVX NSCLC
HCT-116 colon = tested on: HCT-116 colon
HCT-15 colon = tested on: HCT-15 colon
HL-60(TB) leukemia = tested on: HL-60(TB) leukemia
HOP-62 NSCLC = tested on: HOP-62 NSCLC
HOP-92 NSCLC = tested on: HOP-92 NSCLC
HT29 colon = tested on: HT29 colon
IGROV1 ovarian = tested on: IGROV1 ovarian
K-562 leukemia = tested on: K-562 leukemia
KM12 colon = tested on: KM12 colon
LOX IMVI melanoma = tested on: LOX IMVI melanoma
M14 melanoma = tested on: M14 melanoma
MALME-3M melanoma = tested on: MALME-3M melanoma
MDA-N = tested on: MDA-N
MOLT-4 leukemia = tested on: MOLT-4 leukemia
NCI-H226 lung = tested on: NCI-H226 lung
NCI-H23 lung = tested on: NCI-H23 lung
NCI-H460 lung = tested on: NCI-H460 lung
NCI/ADR-RES ovarian = tested on: NCI/ADR-RES ovarian
OVCAR-3 ovarian = tested on: OVCAR-3 ovarian
OVCAR-4 ovarian = tested on: OVCAR-4 ovarian
OVCAR-5 ovarian = tested on: OVCAR-5 ovarian
RPMI-8226 leukemia = tested on: RPMI-8226 leukemia
RXF 393 renal = tested on: RXF 393 renal
SF-268 CNS = tested on: SF-268 CNS
SF-295 CNS = tested on: SF-295 CNS
SF-539 CNS = tested on: SF-539 CNS
SK-MEL-2 melanoma = tested on: SK-MEL-2 melanoma
SK-MEL-28 melanoma = tested on: SK-MEL-28 melanoma
SK-MEL-5 melanoma = tested on: SK-MEL-5 melanoma
SK-OV-3 ovarian = tested on: SK-OV-3 ovarian
SN12C renal = tested on: SN12C renal
SNB-19 CNS = tested on: SNB-19 CNS
SNB-75 CNS = tested on: SNB-75 CNS
SW-620 colon = tested on: SW-620 colon
U251 CNS = tested on: U251 CNS
UACC-257 melanoma = tested on: UACC-257 melanoma
UACC-62 melanoma = tested on: UACC-62 melanoma
UO-31 renal = tested on: UO-31 renal

NC(=O)c1cn(C2OC(CO)C(O)C2O)c2ncnc(N)c12 (stereo not given)
0.0758 µM: TGI (HS 578T breast)
0.148 µM and 0.0759 µM: TGI (CCRF-CEM leukemia)
0.206 µM and 0.0701 µM: TGI (NCI-H522 lung)
216 nM [middle of 4 runs]: TGI (HCC-2998 colon)
0.00574 µM: TGI (PC-3 prostate)
0.205 µM and 0.326 µM: TGI (DMS 114 small cell lung)
0.383 µM and 0.904 µM and 0.0921 µM: TGI (OVCAR-8 ovarian)
active: GI50 (CCRF-CEM leukemia) 0.00559 µM and 0.0246 µM and 0.00627 µM | GI50 (DMS 273 small cell lung) 0.0875 µM and 0.07 µM | GI50 (MCF7 breast) 0.0207 µM | GI50 (NCI-H522 lung) 0.0482 µM and 0.021 µM | GI50 (SR leukemia) 0.0128 µM
0.0684 µM: TGI (786-0 renal)
0.0523 µM: TGI (T-47D breast)
0.0389 µM: TGI (BT-549 breast)
0.0946 µM: TGI (SR leukemia)
0.102 µM: TGI (MDA-MB-231 breast)
0.0487 µM: TGI (DU-145 prostate)
118 nM [middle of 4 runs]: TGI (DMS 273 small cell lung)
0.103 µM: TGI (ACHN renal)
0.036 µM: TGI (MDA-MB-435)
0.0707 µM: TGI (TK-10 renal)

CCC1(CC)C(=O)CC[C@@]2(C)C1=CC[C@H]1[C@@H]3CC[C@H](O)[C@@]3(C)CC[C@@H]12
37.8 µM: TGI (LOX IMVI melanoma)
37 µM: TGI (HOP-62 NSCLC)
37.3 µM: TGI (K-562 leukemia)
34.7 µM: TGI (UO-31 renal)
63.8 µM: TGI (HCT-116 colon)
28.9 µM: TGI (A549 NSCLC)
28.5 µM: TGI (HT29 colon)
78.6 µM: TGI (NCI-H522 lung)
82.6 µM: TGI (UACC-257 melanoma)
31.8 µM: TGI (SR leukemia)
63.1 µM: TGI (SW-620 colon)
32.2 µM: TGI (NCI-H460 lung)
33.9 µM: TGI (U251 CNS)
46.4 µM: TGI (HL-60(TB) leukemia)
45 µM: TGI (OVCAR-3 ovarian)
32.4 µM: TGI (RPMI-8226 leukemia)
54.8 µM: TGI (MOLT-4 leukemia)
44.6 µM: TGI (A498 renal)
87.5 µM: TGI (NCI-H226 lung)
72.6 µM: TGI (HS 578T breast)
99.2 µM: TGI (SF-268 CNS)
31.6 µM: TGI (SN12C renal)
41.9 µM: TGI (TK-10 renal)
62.1 µM: TGI (SF-295 CNS)
88.9 µM: TGI (COLO 205 colon)
29.6 µM: TGI (786-0 renal)
85.4 µM: TGI (DU-145 prostate)
56.5 µM: TGI (OVCAR-8 ovarian)
99.7 µM: TGI (T-47D breast)
> 100 µM: TGI (ACHN renal) | TGI (BT-549 breast) | TGI (CAKI-1 renal) | TGI (EKVX NSCLC) | TGI (HCT-15 colon) | TGI (HOP-92 NSCLC) | TGI (IGROV1 ovarian) | TGI (KM12 colon) | TGI (M14 melanoma) | TGI (MALME-3M melanoma) | TGI (MDA-MB-231 breast) | TGI (MDA-MB-435) | TGI (MDA-N) | TGI (NCI-H23 lung) | TGI (NCI/ADR-RES ovarian) | TGI (OVCAR-4 ovarian) | TGI (OVCAR-5 ovarian) | TGI (PC-3 prostate) | TGI (RXF 393 renal) | TGI (SF-539 CNS) | TGI (SK-MEL-2 melanoma) | TGI (SK-MEL-28 melanoma) | TGI (SK-MEL-5 melanoma) | TGI (SK-OV-3 ovarian) | TGI (SNB-19 CNS) | TGI (SNB-75 CNS) | TGI (UACC-62 melanoma)
45.7 µM: TGI (CCRF-CEM leukemia)

Clc1nc(-[n+]2ccc(-c3ccncc3)cc2)nc(Nc2ccccc2)c1Cl
90.2 µM: TGI (CCRF-CEM leukemia)
> 100 µM: TGI (786-0 renal) | TGI (A498 renal) | TGI (A549 NSCLC) | TGI (ACHN renal) | TGI (BT-549 breast) | TGI (COLO 205 colon) | TGI (DU-145 prostate) | TGI (EKVX NSCLC) | TGI (HCC-2998 colon) | TGI (HCT-116 colon) | TGI (HCT-15 colon) | TGI (HL-60(TB) leukemia) | TGI (HOP-62 NSCLC) | TGI (HOP-92 NSCLC) | TGI (HS 578T breast) | TGI (HT29 colon) | TGI (IGROV1 ovarian) | TGI (K-562 leukemia) | TGI (KM12 colon) | TGI (LOX IMVI melanoma) | TGI (M14 melanoma) | TGI (MALME-3M melanoma) | TGI (MCF7 breast) | TGI (MDA-MB-231 breast) | TGI (MDA-MB-435) | TGI (MDA-N) | TGI (MOLT-4 leukemia) | TGI (NCI-H226 lung) | TGI (NCI-H23 lung) | TGI (NCI-H460 lung) | TGI (NCI/ADR-RES ovarian) | TGI (OVCAR-3 ovarian) | TGI (OVCAR-4 ovarian) | TGI (OVCAR-5 ovarian) | TGI (PC-3 prostate) | TGI (RPMI-8226 leukemia) | TGI (RXF 393 renal) | TGI (SF-268 CNS) | TGI (SF-539 CNS) | TGI (SK-MEL-2 melanoma) | TGI (SK-MEL-28 melanoma) | TGI (SK-MEL-5 melanoma) | TGI (SK-OV-3 ovarian) | TGI (SN12C renal) | TGI (SNB-19 CNS) | TGI (SW-620 colon) | TGI (T-47D breast) | TGI (TK-10 renal) | TGI (U251 CNS) | TGI (UACC-257 melanoma) | TGI (UACC-62 melanoma) | TGI (UO-31 renal)
77.4 µM: TGI (SR leukemia)

S=c1nc[nH]c2c1ncn2Cc1ccco1
> 100 µM: TGI (786-0 renal) | TGI (A498 renal) | TGI (A549 NSCLC) | TGI (ACHN renal) | TGI (BT-549 breast) | TGI (CAKI-1 renal) | TGI (COLO 205 colon) | TGI (DU-145 prostate) | TGI (EKVX NSCLC) | TGI (HCC-2998 colon) | TGI (HCT-116 colon) | TGI (HCT-15 colon) | TGI (HOP-62 NSCLC) | TGI (HOP-92 NSCLC) | TGI (HS 578T breast) | TGI (HT29 colon) | TGI (IGROV1 ovarian) | TGI (K-562 leukemia) | TGI (KM12 colon) | TGI (LOX IMVI melanoma) | TGI (M14 melanoma) | TGI (MALME-3M melanoma) | TGI (MCF7 breast) | TGI (MDA-MB-231 breast) | TGI (MDA-MB-435) | TGI (MDA-N) | TGI (MOLT-4 leukemia) | TGI (NCI-H226 lung) | TGI (NCI-H23 lung) | TGI (NCI-H460 lung) | TGI (NCI-H522 lung) | TGI (NCI/ADR-RES ovarian) | TGI (OVCAR-3 ovarian) | TGI (OVCAR-4 ovarian) | TGI (OVCAR-5 ovarian) | TGI (OVCAR-8 ovarian) | TGI (PC-3 prostate) | TGI (RPMI-8226 leukemia) | TGI (RXF 393 renal) | TGI (SF-268 CNS) | TGI (SF-295 CNS) | TGI (SF-539 CNS) | TGI (SK-MEL-2 melanoma) | TGI (SK-MEL-28 melanoma) | TGI (SK-MEL-5 melanoma) | TGI (SK-OV-3 ovarian) | TGI (SN12C renal) | TGI (SNB-19 CNS) | TGI (SNB-75 CNS) | TGI (SR leukemia) | TGI (SW-620 colon) | TGI (T-47D breast) | TGI (TK-10 renal) | TGI (U251 CNS) | TGI (UACC-257 melanoma) | TGI (UACC-62 melanoma) | TGI (UO-31 renal)
